# The NIST ThermoML archive (doi:10.1016/j.fluid.2010.10.018)
# ± gives the expanded uncertainty stated by the source.
# Conditions: 101.33 kPa, Liquid
# [1] = 313 K, Concentric cylinders viscometry
# [2] = 318 K, Concentric cylinders viscometry
# [3] = 323 K, Concentric cylinders viscometry
# [4] = 328 K, Concentric cylinders viscometry
# [5] = 333 K, Concentric cylinders viscometry
# [6] = 338 K, Concentric cylinders viscometry
# [7] = 343 K, Concentric cylinders viscometry
# [8] = 348 K, Concentric cylinders viscometry
# [9] = 353 K, Concentric cylinders viscometry
# [10] = 358 K, Concentric cylinders viscometry
# [11] = 363 K, Concentric cylinders viscometry
# [12] = 278 K, Concentric cylinders viscometry
# [13] = 283 K, Concentric cylinders viscometry
# [14] = 288 K, Concentric cylinders viscometry
# [15] = 293 K, Concentric cylinders viscometry
# [16] = 298 K, Concentric cylinders viscometry
# [17] = 303 K, Concentric cylinders viscometry
# [18] = 308 K, Concentric cylinders viscometry
# [19] = 283 K, Falling or rolling sphere viscometry
# [20] = 293 K, Falling or rolling sphere viscometry
# [21] = 313 K, Falling or rolling sphere viscometry
# [22] = 333 K, Falling or rolling sphere viscometry
# [23] = 353 K, Falling or rolling sphere viscometry
# [24] = 373 K, Falling or rolling sphere viscometry
# [25] = 393 K, Falling or rolling sphere viscometry
SMILES,viscosity [1],viscosity [2],viscosity [3],viscosity [4],viscosity [5],viscosity [6],viscosity [7],viscosity [8],viscosity [9],viscosity [10],viscosity [12],viscosity [13],viscosity [14],viscosity [15],viscosity [16],viscosity [17],viscosity [18],viscosity [20],viscosity [21],viscosity [22],also measured
CCCCCCCCCCCCCCn1cc[n+](C)c1.O=S(=O)([N-]S(=O)(=O)C(F)(F)F)C(F)(F)F,98.04 ± 5 mPa·s,78.06 ± 3.9 mPa·s,63.09 ± 3.2 mPa·s,51.68 ± 2.6 mPa·s,42.83 ± 2.2 mPa·s,35.87 ± 1.8 mPa·s,30.36 ± 1.5 mPa·s,25.93 ± 1.3 mPa·s,22.33 ± 1.1 mPa·s,19.38 ± 0.98 mPa·s,–,–,–,–,–,–,–,–,–,–,viscosity [11]: 16.95 ± 0.85 mPa·s
CCCCCCCCC[n+]1ccn(C)c1.O=S(=O)([N-]S(=O)(=O)C(F)(F)F)C(F)(F)F,–,–,–,–,–,–,–,–,–,–,–,–,–,–,–,–,–,–,–,–,"viscosity (278 K, Capillary tube (Ostwald / Ubbelohde) method): 348.2 ± 20 mPa·s; viscosity (283 K, Capillary tube (Ostwald / Ubbelohde) method): 249.7 ± 14 mPa·s; viscosity (288 K, Capillary tube (Ostwald / Ubbelohde) method): 183.88 ± 10 mPa·s; viscosity (293 K, Capillary tube (Ostwald / Ubbelohde) method): 138.55 ± 7.3 mPa·s; viscosity (298 K, Capillary tube (Ostwald / Ubbelohde) method): 106.41 ± 5.5 mPa·s; viscosity (303 K, Capillary tube (Ostwald / Ubbelohde) method): 83.35 ± 4.2 mPa·s; viscosity (308 K, Capillary tube (Ostwald / Ubbelohde) method): 66.2 ± 3.3 mPa·s; viscosity (313 K, Capillary tube (Ostwald / Ubbelohde) method): 53.43 ± 2.7 mPa·s; viscosity (318 K, Capillary tube (Ostwald / Ubbelohde) method): 43.76 ± 2.2 mPa·s; viscosity (323 K, Capillary tube (Ostwald / Ubbelohde) method): 36.28 ± 1.8 mPa·s; viscosity (328 K, Capillary tube (Ostwald / Ubbelohde) method): 30.43 ± 1.5 mPa·s; viscosity (333 K, Capillary tube (Ostwald / Ubbelohde) method): 25.77 ± 1.3 mPa·s; viscosity (338 K, Capillary tube (Ostwald / Ubbelohde) method): 22.12 ± 1.1 mPa·s; viscosity (343 K, Capillary tube (Ostwald / Ubbelohde) method): 19.09 ± 0.96 mPa·s; viscosity (348 K, Capillary tube (Ostwald / Ubbelohde) method): 16.61 ± 0.84 mPa·s; viscosity (353 K, Capillary tube (Ostwald / Ubbelohde) method): 14.53 ± 0.73 mPa·s; viscosity (358 K, Capillary tube (Ostwald / Ubbelohde) method): 12.82 ± 0.65 mPa·s; viscosity (363 K, Capillary tube (Ostwald / Ubbelohde) method): 11.4 ± 0.57 mPa·s"
CCCCCCCCn1cc[n+](C)c1.O=S(=O)([N-]S(=O)(=O)C(F)(F)F)C(F)(F)F,47.5 ± 2.4 mPa·s,39.09 ± 2 mPa·s,32.56 ± 1.6 mPa·s,27.43 ± 1.4 mPa·s,23.35 ± 1.2 mPa·s,20.06 ± 1 mPa·s,17.38 ± 0.88 mPa·s,15.18 ± 0.76 mPa·s,13.35 ± 0.67 mPa·s,11.83 ± 0.6 mPa·s,297.03 ± 16 mPa·s,214.79 ± 11 mPa·s,159.11 ± 8.3 mPa·s,120.46 ± 6.2 mPa·s,93.05 ± 4.7 mPa·s,73.2 ± 3.7 mPa·s,58.53 ± 2.9 mPa·s,–,–,–,–
CCCCCCCCCCn1cc[n+](C)c1.O=S(=O)([N-]S(=O)(=O)C(F)(F)F)C(F)(F)F,59.37 ± 3 mPa·s,48.36 ± 2.4 mPa·s,39.91 ± 2 mPa·s,33.32 ± 1.7 mPa·s,28.12 ± 1.4 mPa·s,23.97 ± 1.2 mPa·s,20.62 ± 1 mPa·s,17.88 ± 0.9 mPa·s,15.63 ± 0.79 mPa·s,13.75 ± 0.69 mPa·s,403.2 ± 23 mPa·s,287.62 ± 16 mPa·s,210.53 ± 11 mPa·s,157.52 ± 8.2 mPa·s,120.18 ± 6.2 mPa·s,93.45 ± 4.8 mPa·s,73.92 ± 3.7 mPa·s,159.41 ± 9.8 mPa·s,60.51 ± 3.1 mPa·s,29.3 ± 1.5 mPa·s,viscosity [19]: 292.44 ± 22 mPa·s; viscosity [23]: 16.14 ± 0.82 mPa·s; viscosity [24]: 10 ± 0.51 mPa·s; viscosity [25]: 6.8 ± 0.34 mPa·s
CCn1cc[n+](C)c1.O=S(=O)([N-]S(=O)(=O)C(F)(F)F)C(F)(F)F,20.37 ± 1 mPa·s,17.69 ± 0.9 mPa·s,15.5 ± 0.79 mPa·s,13.68 ± 0.7 mPa·s,12.16 ± 0.62 mPa·s,10.87 ± 0.56 mPa·s,9.784 ± 0.5 mPa·s,8.848 ± 0.45 mPa·s,8.041 ± 0.41 mPa·s,7.34 ± 0.38 mPa·s,76.05 ± 3.9 mPa·s,60.15 ± 3.1 mPa·s,48.47 ± 2.5 mPa·s,39.71 ± 2 mPa·s,33 ± 1.7 mPa·s,27.78 ± 1.4 mPa·s,23.66 ± 1.2 mPa·s,39.54 ± 2 mPa·s,20.49 ± 1.1 mPa·s,12.42 ± 0.64 mPa·s,viscosity [19]: 59.8 ± 3.1 mPa·s; viscosity [23]: 8.036 ± 0.41 mPa·s
CCCCCCCn1cc[n+](C)c1.O=S(=O)([N-]S(=O)(=O)C(F)(F)F)C(F)(F)F,42.28 ± 2.1 mPa·s,34.99 ± 1.8 mPa·s,29.3 ± 1.5 mPa·s,24.81 ± 1.2 mPa·s,21.2 ± 1.1 mPa·s,18.3 ± 0.92 mPa·s,15.92 ± 0.8 mPa·s,13.95 ± 0.7 mPa·s,12.31 ± 0.62 mPa·s,10.93 ± 0.55 mPa·s,235 ± 13 mPa·s,182.82 ± 9.6 mPa·s,136.42 ± 7.1 mPa·s,104.17 ± 5.3 mPa·s,81.11 ± 4.1 mPa·s,64.28 ± 3.2 mPa·s,51.75 ± 2.6 mPa·s,–,–,–,viscosity [11]: 9.753 ± 0.49 mPa·s
CCCC[n+]1ccn(C)c1.O=S(=O)([N-]S(=O)(=O)C(F)(F)F)C(F)(F)F,28.28 ± 1.4 mPa·s,23.92 ± 1.2 mPa·s,20.45 ± 1 mPa·s,17.66 ± 0.89 mPa·s,15.38 ± 0.77 mPa·s,13.5 ± 0.68 mPa·s,11.93 ± 0.6 mPa·s,10.61 ± 0.53 mPa·s,9.501 ± 0.48 mPa·s,8.553 ± 0.43 mPa·s,137.62 ± 7.1 mPa·s,104.14 ± 5.3 mPa·s,80.16 ± 4.1 mPa·s,62.99 ± 3.2 mPa·s,50.62 ± 2.5 mPa·s,41.12 ± 2.1 mPa·s,33.89 ± 1.7 mPa·s,63.05 ± 3.2 mPa·s,28.63 ± 1.5 mPa·s,16 ± 0.81 mPa·s,viscosity [23]: 9.911 ± 0.5 mPa·s; viscosity [24]: 6.548 ± 0.33 mPa·s; viscosity [25]: 4.785 ± 0.24 mPa·s
CCCn1cc[n+](C)c1.O=S(=O)([N-]S(=O)(=O)C(F)(F)F)C(F)(F)F,26.13 ± 1.3 mPa·s,22.23 ± 1.1 mPa·s,19.11 ± 0.98 mPa·s,16.58 ± 0.85 mPa·s,14.5 ± 0.74 mPa·s,12.79 ± 0.65 mPa·s,11.35 ± 0.58 mPa·s,10.14 ± 0.52 mPa·s,9.118 ± 0.47 mPa·s,8.24 ± 0.42 mPa·s,122.17 ± 6.4 mPa·s,92.6 ± 4.8 mPa·s,71.78 ± 3.7 mPa·s,56.78 ± 2.9 mPa·s,45.75 ± 2.3 mPa·s,37.43 ± 1.9 mPa·s,31.07 ± 1.6 mPa·s,56.4 ± 2.9 mPa·s,26.17 ± 1.3 mPa·s,14.82 ± 0.76 mPa·s,viscosity [23]: 9.251 ± 0.48 mPa·s; viscosity [24]: 6.32 ± 0.33 mPa·s
CCCCCC[n+]1ccn(C)c1.O=S(=O)([N-]S(=O)(=O)C(F)(F)F)C(F)(F)F,37.47 ± 1.9 mPa·s,31.19 ± 1.6 mPa·s,26.25 ± 1.3 mPa·s,22.35 ± 1.1 mPa·s,19.2 ± 0.98 mPa·s,16.65 ± 0.85 mPa·s,14.55 ± 0.74 mPa·s,12.81 ± 0.65 mPa·s,11.35 ± 0.58 mPa·s,10.13 ± 0.52 mPa·s,212.3 ± 12 mPa·s,155.94 ± 8.2 mPa·s,117.29 ± 6.1 mPa·s,90.13 ± 4.6 mPa·s,70.61 ± 3.6 mPa·s,56.3 ± 2.9 mPa·s,45.61 ± 2.3 mPa·s,87.84 ± 4.7 mPa·s,37.08 ± 1.9 mPa·s,19.29 ± 0.99 mPa·s,viscosity [23]: 11.48 ± 0.59 mPa·s; viscosity [24]: 7.46 ± 0.38 mPa·s; viscosity [25]: 5.28 ± 0.27 mPa·s
CCCCCCCCCCCCn1cc[n+](C)c1.O=S(=O)([N-]S(=O)(=O)C(F)(F)F)C(F)(F)F,74.49 ± 3.8 mPa·s,60.08 ± 3 mPa·s,49.11 ± 2.5 mPa·s,40.64 ± 2 mPa·s,34.01 ± 1.7 mPa·s,28.76 ± 1.4 mPa·s,24.55 ± 1.2 mPa·s,21.14 ± 1.1 mPa·s,18.35 ± 0.92 mPa·s,16.05 ± 0.81 mPa·s,–,384.51 ± 22 mPa·s,277.46 ± 15 mPa·s,205 ± 11 mPa·s,154.33 ± 8.1 mPa·s,118.68 ± 6.1 mPa·s,93.71 ± 4.8 mPa·s,–,–,–,viscosity [11]: 14.12 ± 0.71 mPa·s
CCCCCn1cc[n+](C)c1.O=S(=O)([N-]S(=O)(=O)C(F)(F)F)C(F)(F)F,31.43 ± 1.6 mPa·s,26.38 ± 1.3 mPa·s,22.4 ± 1.1 mPa·s,19.2 ± 0.97 mPa·s,16.6 ± 0.84 mPa·s,14.48 ± 0.73 mPa·s,12.73 ± 0.64 mPa·s,11.27 ± 0.57 mPa·s,10.04 ± 0.51 mPa·s,8.996 ± 0.45 mPa·s,164.73 ± 8.6 mPa·s,123.09 ± 6.3 mPa·s,93.65 ± 4.8 mPa·s,72.76 ± 3.7 mPa·s,57.81 ± 2.9 mPa·s,46.38 ± 2.3 mPa·s,37.92 ± 1.9 mPa·s,78.44 ± 4.1 mPa·s,33.94 ± 1.7 mPa·s,18.52 ± 0.94 mPa·s,viscosity [19]: 133.33 ± 7.8 mPa·s; viscosity [23]: 10.89 ± 0.55 mPa·s; viscosity [24]: 7.19 ± 0.36 mPa·s; viscosity [25]: 5.15 ± 0.26 mPa·s
